Source: ChEMBL document CHEMBL3045658, “Design, synthesis, antiviral activity, and SARs of 14-aminophenanthroindolizidines” (2012)

Experiments:
Format in all cases: functional
Tobacco mosaic virus [1] = assay: In vivo antiviral activity against Tobacco mosaic virus (TMV) pre-inoculated Nicotiana. tabacum L. leaves assessed as curative effect at 100 ug/mL measured after 3 to 4 days
Tobacco mosaic virus [2] = assay: In vivo antiviral activity against Tobacco mosaic virus (TMV) inoculated left side of Nicotiana. tabacum L. leaves assessed as inactivation effect at 100 ug/mL co-incubated with virus measured after 3 to 4 days
Tobacco mosaic virus [3] = assay: In vivo antiviral activity against Tobacco mosaic virus (TMV) pre-inoculated Nicotiana. tabacum L. leaves assessed as curative effect at 500 ug/mL measured after 3 to 4 days
Tobacco mosaic virus [4] = assay: Antiviral activity against Tobacco mosaic virus (TMV) inoculated in 5-6 growth stage leaf assessed as inhibition effect at 500 ug/mL at 25 degC after 72 hr by half-leaf method
Tobacco mosaic virus [5] = assay: In vivo antiviral activity against Tobacco mosaic virus (TMV) inoculated right side of Nicotiana. tabacum L. leaves assessed as protection effect at 500 ug/mL preincubated 12 hr before viral challenge measured after 3 to 4 days
Tobacco mosaic virus [6] = assay: In vivo antiviral activity against Tobacco mosaic virus (TMV) inoculated left side of Nicotiana. tabacum L. leaves assessed as inactivation effect at 500 ug/mL co-incubated with virus measured after 3 to 4 days
Tobacco mosaic virus [7] = assay: Antiviral activity against Tobacco mosaic virus (TMV) inoculated in 5-6 growth stage leaf assessed as inhibition effect at 100 ug/mL at 25 degC after 72 hr by half-leaf method
Tobacco mosaic virus [8] = assay: In vivo antiviral activity against Tobacco mosaic virus (TMV) inoculated right side of Nicotiana. tabacum L. leaves assessed as protection effect at 100 ug/mL preincubated 12 hr before viral challenge measured after 3 to 4 days
Tobacco mosaic virus [9] = assay: Antiviral activity against Tobacco mosaic virus (TMV) assessed as inhibition effect at 1 ug/mL

Row | SMILES | inhibition in vivo at 100 µg/mL (Tobacco mosaic virus [1]) | inhibition in vivo at 100 µg/mL (Tobacco mosaic virus [2]) | inhibition in vivo at 500 µg/mL (Tobacco mosaic virus [3]) | inhibition at 500 µg/mL (Tobacco mosaic virus [4]) | inhibition in vivo at 500 µg/mL (Tobacco mosaic virus [5]) | inhibition in vivo at 500 µg/mL (Tobacco mosaic virus [6]) | inhibition at 100 µg/mL (Tobacco mosaic virus [7]) | inhibition in vivo at 100 µg/mL (Tobacco mosaic virus [8]) | inhibition at 1 µg/mL (Tobacco mosaic virus [9])
1 | CCCCN[C@@H]1c2c(c3cc(OC)c(OC)cc3c3cc(OC)ccc23)CN2C(=O)CC[C@H]12 | 23.6% | 25.4% | 41.7% | 38.2% | 48.2% | 49.4% | 17.5% | 20.5% | –
2 | COc1ccc2c3c(c4cc(OC)c(OC)cc4c2c1)CN1CCC[C@H]1[C@H]3NC(=O)C(C)(C)C | 27.7% | 15.4% | 45% | 49.1% | 43.1% | 31.9% | 30% | 23.6% | –
3 | CCCCN[C@H]1c2c(c3cc(OC)c(OC)cc3c3cc(OC)ccc23)CN2CCC[C@@H]12 | 25.9% | 30% | 60.2% | 62.3% | 65.5% | 58.9% | 28.4% | 34.9% | –
4 | COc1ccc2c3c(c4cc(OC)c(OC)cc4c2c1)CN1CCC[C@H]1[C@H]3N | 48.2% | 32.8% | 68% | 72.4% | 71.6% | 70.3% | 45% | 38.9% | –
5 | COc1cc2c3c(c4ccc(O)cc4c2cc1OC)CN1CCC[C@@H]1C3 | – | – | – | – | – | – | – | – | 70%
6 | COc1ccc2c3c(c4cc(OC)c(OC)cc4c2c1)[C@H](NC(C)=O)[C@@H]1CCCN1C3 | 50.8% | 40.4% | 69.6% | 75.1% | 72.7% | 72.2% | 55% | 55.3% | –
7 | COc1cc2c3c(c4cc(OC)c(OC)cc4c2cc1OC)[C@H](NC(C)=O)[C@@H]1CCCN1C3 | 25.3% | 31.1% | 37.4% | 34.7% | 41.5% | 46.4% | 21.1% | 29.3% | –
8 | CNCC(=O)N[C@@H](CO)C(=O)N[C@H]1[C@H](O)[C@@H](O)[C@H](n2ccc(N)nc2=O)O[C@@H]1C(N)=O [NINGNANMYCIN] | 18.9% | 37.7% | 56% | 70.2% | 66.6% | 68.5% | 23.9% | 25.2% | –
9 | CCCCN[C@@H]1c2c(c3cc(OC)c(OC)cc3c3cc(OC)ccc23)CN2C(=O)CC[C@@H]12 | 24.3% | 27.6% | 52.5% | 45.7% | 54.8% | 50% | 20% | 28.6% | –
10 | CCCCN[C@H]1c2c(c3cc(OC)c(OC)cc3c3cc(OC)ccc23)CN2C(=O)CC[C@H]12 | 14.3% | 19.8% | 36.2% | 44.1% | 46.8% | 43.3% | 20.4% | 17.6% | –
11 | NC(=O)c1ncn([C@@H]2O[C@H](CO)[C@@H](O)[C@H]2O)n1 [RIBAVIRIN] | 8.2% | 9.8% | 36.7% | 41% | 38.9% | 33.8% | 19.6% | 7.5% | –
12 | COc1ccc2c3c(c4cc(OC)c(OC)cc4c2c1)[C@H](NC(=O)C(C)(C)C)[C@@H]1CCCN1C3 | 31.4% | 23.6% | 45.6% | 48.3% | 52.6% | 37.2% | 28.7% | 24.7% | –
